This note sets out measurements from paper PMC10143702, “Kinetic and Regulatory Properties of Yarrowia lipolytica Aconitate Hydratase as a Model-Indicator of Cell Redox State under pH Stress” (International Journal of Molecular Sciences, 2023).

Like-named read-outs stand apart in the source and are kept apart here.

Test [1] has as its system T1, aconitate hydratase (AH).
T1 construct: gene ACO1
The following applies: read-out: Citrate / Km; enzyme from cells grown at pH 5.5; 50 mM Tris-HCl pH 7.8, 25 °C; partially purified.

The subject of test [2] is T2, aconitate hydratase (AH).
T2 construct: gene ACO1; cells grown at pH 5.5; [4Fe-4S] enzyme
Description: spectrophotometric at […] nm; Lineweaver-Burk. Conditions: enzyme from cells grown at pH 5.5; 50 mM Tris-HCl pH 7.8, 25 °C; partially purified; reverse reaction; read-out: Isocitrate / Km. The format is biochemical, Yarrowia lipolytica.

For `O=C(O)CC(O)(CC(=O)O)C(=O)O` [citrate], the Km in the test with aconitate hydratase (AH) [1] was 320 ± 11 µM.

For the compound `O=C(O)C[C@H](C(=O)O)[C@@H](O)C(=O)O` [isocitrate], the Km in the test with aconitate hydratase (AH) [2] stood at 270 ± 15 µM.
